Patent publication US9480662B1 (priority 2015, dated 2016)
Values belong to the molecule of their own block, whether it stands above or below them.

Experiments:
[1] = Plasma analysis and pharmacokinetics after intravaginal administration
Protocol: The low dose of 1 mg represents the largest potential human dose on an mg/kg basis. The high dose of 20 mg represents the largest potential total human dose unadjusted for body weight.
Pharmacokinetic parameters were determined by non-compartmental methods using Phoenix™ WinNonlin® (Version 6.3.0) Model: Plasma Data, Extravascular Administration for individual serial sample collection data (Pharsight Corporation). Area under the curve values were calculated using the linear trapezoidal rule with linear interpolation. […] Nominal sample collection time was used for the analysis unless the actual sample collection time exceeded the allowable collection window for the respective time; in which case, the actual sample collection time was used. Pharmacokinetic parameter data manipulation was performed using Excel 2010 (Microsoft Corporation).
Pharmacokinetic parameters determined were defined as follows: • Cmax: Maximum observed concentration occurring at Tmax. Tmax: Time of maximum observed concentration. • AUC0-t: Area under the curve from the time of dosing to the time of the last observation.

[2] = tested on: postmenopausal hysterectomized patients with atrophic vaginitis; experiment: Pilot study of tamoxifen citrate vaginal suppository: vaginal pH; type: in vivo, human
Protocol: (§1) Methodology. Open-label prospective cohort study. Postmenopausal women with atrophic vaginitis were confirmed by vaginal pH. At baseline, vaginal pH and measure of their subjective vaginal dryness based on a VAS vaginal dryness. Four subjects were treated with vaginal suppositories of tamoxifen citrate for three months. After eight weeks of treatment, subjects had pharmacokinetic studies of the vaginal suppository.
(§2) Research Design. Healthy women with atrophic vaginitis were recruited to this study. To be eligible to enroll in the study, subjects underwent one screening visit. This visit was to determine the subject's vaginal pH and to measure of their subjective vaginal dryness based on a VAS. Once the subject met eligibility criteria, they received study medication.
(§3) Subjects received supplies of the study drug every six weeks.
(§4) Duration of Treatment. Participants were given the vaginal suppository every day for one week and then two times per week thereafter for 3 months. They were told how to insert the test drug (using the applicator, place the study drug deep into the vagina) and the dosing schedule.
(§5) Statistical Methods. The primary endpoints are changes in the self-assessment of vaginal dryness and vaginal pH defined as the difference between the baseline and the 3-month measurements. Descriptive statistics provided for the continuous study endpoints will include mean, median, standard deviation, and 95% confidence intervals. Descriptive statistics provided for categorical endpoints will include frequencies, percents, and 95% confidence intervals. Missing values of a variable will be imputed using the last observed value for the participant. Descriptive statistics will be provided with and without imputation of missing values.

female rabbits = experiment: 28-day intravaginal irritation study, modified Draize vaginal scoring; type: in vivo, New Zealand White rabbit
Protocol: The testing was conducted following once daily intravaginal administration to female rabbits for 28 days to provide evaluation of the reversibility, progression, or delayed appearance of any observed changes following a 14-day postdose observation period. The animal model most commonly used to evaluate safety of vaginally administered products is the rabbit and the ovariectomized rat. However, the rabbit is considered the more sensitive model, and thus, was selected for this study.
Assessment of toxicity and/or irritation was based on mortality, clinical observations, vaginal irritation scores, body weight, physical examinations; clinical pathology, anatomic pathology, and histopathological grading of vaginal tissues. Treatment-related microscopic findings occurred in the proximal, mid, and distal vagina.
A total of 26 female experimentally naïve New Zealand White Hra:(NZW)SPF albino rabbits (approximately 7.5 months of age at receipt) were received from Covance Research Products, Greenfield, Ind. During the 9-day acclimation period, the animals were observed daily with respect to general health and any signs of disease.
The vaginal region of the animals was evaluated for signs of irritation using a modified Draize scoring system as presented in the following table. Evaluations were conducted prior to each daily dose and daily during the recovery period. Any abnormalities observed during this examination were documented as a detailed clinical observation. A score of “1” or above was confirmed by a member of the veterinary staff.

[3] = tested on: postmenopausal hysterectomized patients with atrophic vaginitis; settings: 3 months of vaginal suppository, 4 patients
[4] = tested on: postmenopausal hysterectomized patients with atrophic vaginitis; experiment: Pilot study of tamoxifen citrate vaginal suppository: self-assessment of vaginal dryness (VAS); type: in vivo, human
Protocol: as §1, §2, §3, §4, §5

[5] = oral, cited from earlier work
[6] = Day 28, 1 and 20 mg/mL groups, female rabbits
[7] = 20 mg vaginal suppository daily for one week then twice per week, month 3, 4 subjects
[8] = 20 mg vaginal suppository, month 3 versus enrollment, negative = decrease
[9] = baseline before treatment, 4 subjects
[10] = female, New Zealand White, rabbit, in vivo

Structure (SMILES): CCC(=C(c1ccc(O)cc1)c1ccc(OCCN(C)C)cc1)c1ccccc1 [4-Hydroxytamoxifen]
Ratio of high to low mean values, AUC0-t/Dose [1, 6]: 3.16
Ratio of high to low mean values, Cmax/Dose [1, 6]: 4.24
Ratio of mean metabolite to Tamoxifen AUC0-t values ([1]; Day 28, High Dose 20 mg/mL, female rabbits): 0.148
Ratio of mean metabolite to Tamoxifen AUC0-t values ([1]; Day 28, Low Dose 1 mg/mL, female rabbits): 0.0702
Median Tmax, range over dose groups ([1]; rabbit, in vivo): 1 to 8 h

Structure (SMILES): CC/C(=C(\c1ccccc1)c1ccc(OCCN(C)C)cc1)c1ccccc1.O=C(O)CC(O)(CC(=O)O)C(=O)O [tamoxifen citrate, (Z) 2-[4-(1,2-diphenyl-1-butenyl)phenoxy]-N, N-dimethylethanamine 2-hydroxy-1,2,3-propanetricarboxylate]
pH Month 3, median [2, 7]: 5.0
vaginal pH, Paired Difference enrollment to month 3, median [2, 8]: −2.0
lowering of vaginal pH compared with conjugated estrogens ([2]; after 3 months, twice per week regimen): as effective as conjugated estrogens
pH Enrollment, median [2, 9]: 7.1
vaginal irritation (erythema, edema scores) (female rabbits; 1 and 20 mg/mL intravaginal once daily, 28 days): no test article-related vaginal irritation
vaginal irritation during recovery period (female rabbits; 14-day recovery period): no signs of vaginal irritation
vaginal irritation compared with vehicle control (female rabbits; low and high doses (1 and 20 mg/mL), 28 days): did not appear to be any more irritating than the vehicle control
drop-outs, serious adverse events, deaths [3]: no patient drop-outs, serious adverse events, or deaths
Vaginal Dryness Month 3, median (VAS) [4, 7]: 3.0
Vaginal Dryness, Paired Difference enrollment to month 3, median [4, 8]: −5.5
Vaginal Dryness Enrollment, median (VAS) [4, 9]: 8.0

Structure (SMILES): CC/C(=C(\c1ccccc1)c1ccc(OCCN(C)C)cc1)c1ccccc1 [Tamoxifen, 1-(p-dimethylamino-ethoxphenyl)-2-ethyl-1,2-diphenylethylene, reference compound]
time to steady state concentrations ([5]; after initiation of therapy): about 4 weeks
average steady state plasma concentration ([5]; once daily for 3 months): 122 ng/mL
Mean AUC0-t, range over dose groups [1, 10]: 8.85 to 26.5 ng·h/mL
Mean Cmax, range over dose groups [1, 10]: 0.824 to 2.33 ng/mL
Tmax ([1]; female, New Zealand White, rabbit, in vivo, Median Tmax, range over dose groups): 0.5 to 1 h
Tmax ([1]; female, New Zealand White, rabbit, in vivo, Tmax (median)): 1 h

Tmax (median) ([1]; rabbit, in vivo): 1 h
Structure (SMILES): CC/C(=C(\c1ccccc1)c1ccc(OCCNC)cc1)c1ccccc1 [N-Desmethyltamoxifen]
